Laboratory results published in ChEMBL document CHEMBL5512632, “Unlocking the potential of 1,4-naphthoquinones: A comprehensive review of their anticancer properties” (Eur J Med Chem, 2024).
pIC50: −log10 of the molar value. Converted amounts (≈) assume the structure as drawn. Values belong to the molecule of their own block, whether it stands above or below them.

Columns and labels:
A549 [1] = test: Cytotoxicity against human A549 cells incubated for 72 hrs by MTT assay; format: functional, cell-based; settings: A549, 72 h
MDA-MB-435 = test: Cytotoxicity against human MDA-MB-435 cells incubated for 72 hrs by MTT assay; format: functional, cell-based; settings: MDA-MB-435, 72 h
HCT-116 [2] = test: Cytotoxicity against human HCT-116 cells incubated for 72 hrs by MTT assay; format: functional, cell-based; settings: HCT-116, 72 h
[3] = Antiproliferative activity against human A875 cells assessed as inhibition of cell growth incubated for 24 hrs by MTT reagent based ELISA; format: functional; settings: A875, 24 h
NAMALVA [4] = test: Antiproliferative activity against human NAMALVA cells assessed as inhibition of cell growth incubated upto 24 hrs by MTT assay; format: functional, cell-based
NAMALVA [5] = test: Antitumor activity against human NAMALVA cells xenografted in NOD/SCID mouse assessed as reduction in tumor weight at 4 mg/kg,ip administration for 19 consecutive days; format: functional; parameters: scale not given: the % may be the effect or the level left
[6] = Cytotoxicity against human Lung adenocarcinoma cell line; format: functional, cell-based
A549 [7] = test: Cytotoxicity against human A549 cells incubated for 24 hrs by MTT assay; format: functional, cell-based; settings: A549, 24 h
SW872 = test: Antiproliferative activity against human SW872 cells assessed as inhibition of cell growth incubated for 72 hrs by MTT reagent based microplate reader assay; format: functional; settings: SW872, 72 h
A549 [8] = test: Antiproliferative activity against human A549 cells assessed as inhibition of cell growth incubated for 72 hrs by MTT reagent based microplate reader assay; format: functional; settings: A549, 72 h
[9] = Antiproliferative activity against human A875 cells assessed as inhibition of cell growth incubated for 72 hrs by MTT reagent based microplate reader assay; format: functional; settings: A875, 72 h
HeLa [10] = test: Cytotoxicity against human HeLa cells incubated for 24 hrs by MTT reagent based microplate reader analysis; format: functional, cell-based
N2a = test: Cytotoxicity against mouse Neuro2a cells incubated for 24 hrs by MTT reagent based microplate reader analysis; format: functional, cell-based
[11] = Cytotoxicity against mouse JB6 Cl 41-5a cells incubated for 24 hrs by MTT reagent based microplate reader analysis; format: toxicity, cell-based
MCF7 [12] = test: Cytotoxicity against human MCF7 cells assessed as reduction in cell growth incubated upto 72 hrs by MTT assay; format: functional, cell-based; settings: MCF7, 72 h
MDA-MB-468 = test: Cytotoxicity against human MDA-MB-468 cells assessed as reduction in cell growth incubated upto 72 hrs by MTT assay; format: functional, cell-based; settings: MDA-MB-468, 72 h
DU-145 = test: Cytotoxicity against human DU-145 cells incubated for 48 hrs by sulforhodamine B staining based spectrophotometric analysis; format: functional, cell-based; settings: DU-145, 48 h
MCF7 [13] = test: Cytotoxicity against human MCF7 cells incubated for 48 hrs by sulforhodamine B staining based spectrophotometric analysis; format: functional, cell-based; settings: MCF7, 48 h
SK-OV-3 = test: Cytotoxicity against human SK-OV-3 cells assessed as reduction in cell growth incubated for 24 hrs by DAPI staining based fluorescence imaging analysis; format: functional; settings: SK-OV-3, 24 h
OVCAR-5 = test: Cytotoxicity against human OVCAR-5 cells assessed as reduction in cell growth incubated for 24 hrs by DAPI staining based fluorescence imaging analysis; format: functional; settings: OVCAR-5, 24 h
TK-10 = test: Cytotoxicity against human TK-10 cells by sulforhodamine B staining based spectrophotometric analysis; format: functional, cell-based
PC-3 = test: Cytotoxicity against human PC-3 cells by sulforhodamine B staining based spectrophotometric analysis; format: functional, cell-based
MCF7 [14] = test: Cytotoxicity against human MCF7 cells by sulforhodamine B staining based spectrophotometric analysis; format: functional, cell-based
HeLa [15] = test: Cytotoxicity against human HeLa cells by sulforhodamine B staining based spectrophotometric analysis; format: functional, cell-based
HepG2 = test: Cytotoxicity against human HepG2 cells by sulforhodamine B staining based spectrophotometric analysis; format: functional, cell-based
UACC-62 = test: Cytotoxicity against human UACC-62 cells by sulforhodamine B staining based spectrophotometric analysis; format: functional, cell-based
Bel-7402 = test: Antiproliferative activity against human Bel-7402 cells assessed as inhibition of cell growth incubated for 72 hrs by MTT reagent based microplate reader assay; format: functional; settings: Bel-7402, 72 h
MCF7 [16] = test: Antiproliferative activity against human MCF7 cells assessed as inhibition of cell growth incubated for 72 hrs by MTT reagent based microplate reader assay; format: functional; settings: MCF7, 72 h
HCT-15 = test: Antiproliferative activity against human HCT-15 cells assessed as inhibition of cell growth incubated for 72 hrs by MTT reagent based microplate reader assay; format: functional; settings: HCT-15, 72 h
MGC-803 = test: Antiproliferative activity against human MGC-803 cells assessed as inhibition of cell growth incubated for 72 hrs by MTT reagent based microplate reader assay; format: functional; settings: MGC-803, 72 h
HCT-116 [17] = test: Antiproliferative activity against human HCT-116 cells assessed as inhibition of cell growth incubated for 24 hrs by MTT assay; format: functional, cell-based; settings: HCT-116, 24 h
MCF7 [18] = test: Antiproliferative activity against human MCF7 cells assessed as inhibition of cell growth incubated for 24 hrs by MTT assay; format: functional, cell-based; settings: MCF7, 24 h

Compound: CC1(C)O[C@H]2[C@@H](O1)[C@@H](Cn1nnc3c1C(=O)c1cccc(O)c1C3=O)O[C@@H]1OC(C)(C)O[C@@H]12
pIC50 (A549 [1]): 6.00
pIC50 (MDA-MB-435): 6.54
pIC50 (HCT-116 [2]): 6.28

Compound: CC(C)=CC[C@@H](OC(=O)Cc1ccc(Oc2ccccc2)cc1)C1=CC(=O)c2c(O)ccc(O)c2C1=O
pIC50 [3]: 5.91

Compound: CC(C)=CC[C@@H](O)C1=CC(=O)c2c(O)ccc(O)c2C1=O [SHIKONIN]
pIC50 (NAMALVA [4]): 3.72
Activity (NAMALVA [5]): 50%
pIC50 [6]: > 5.30
IC50 (A549 [7]): 3.52 µg/mL (≈ 12.2 µM)

pIC50 (SW872): 6.16
pIC50 (A549 [8]): 5.79
Compound: CC(C)=CC[C@@H](OC(=O)/C=C\c1cccc(C(F)(F)F)c1)C1=CC(=O)c2c(O)ccc(O)c2C1=O
pIC50 [9]: 6.19

Compound: O=C1C2=C(O[C@@H]3[C@@H](O)[C@@H](O)CO[C@H]3S2)C(=O)c2c(O)cccc21
pIC50 (HeLa [10]): 6.40
pIC50 (N2a): 5.85
IC50 at 24 h [11]: 700 nM

Compound: CC1=C(Cl)C(=O)c2c(O)cccc2C1=O
pIC50 (MCF7 [12]): 5.70
pIC50 (MDA-MB-468): 6.22

Compound: O=C1C(Cl)=C(NCCN2CCN(C3=C(Cl)C(=O)c4ccccc4C3=O)CC2)C(=O)c2ccccc21
pIC50 (DU-145): 5.60
pIC50 (MCF7 [13]): 5.67

Compound: COc1cc(/C=C/C(=O)/C=C(O)/C=C/c2ccc(OC3=CC(=O)c4ccccc4C3=O)c(OC)c2)ccc1OC1=CC(=O)c2ccccc2C1=O
pIC50 (SK-OV-3): 5.27
pIC50 (OVCAR-5): 5.39

Compound: O=C1C(CSc2ccc(F)cc2)=C(C2=C(CSc3ccc(F)cc3)C(=O)c3ccccc3C2=O)C(=O)c2ccccc21
pIC50 (TK-10): 5.42
pIC50 (PC-3): 5.16
pIC50 (MCF7 [14]): 5.49
pIC50 (HeLa [15]): 4.50
pIC50 (HepG2): 5.06
pIC50 (UACC-62): 5.53

pIC50 (Bel-7402): 5.38
pIC50 (MCF7 [16]): 5.16
pIC50 (HCT-15): 5.79
pIC50 (MGC-803): 5.48
Compound: CCCCCCCC(Oc1cc(OC)c(OC)c(OC)c1)c1ccc2c(c1)/C(=N\O)C=C/C2=N\O (configuration not stated)

pIC50 (HCT-116 [17]): 4.12
pIC50 (MCF7 [18]): 4.25
Compound: CC1=C/C(=N\NC(=O)CCCCCCCCCC(=O)NN)c2ccccc2C1=O
